Values of other authors in patent US20230345942A1, “CORONA VIRUS KILLING AGENT” (SANKEI CO., LTD., priority 2020, published 2023).

Experiments:
Influenza = test system: Influenza; parameters: key: ◯ Effective; ∇ Low efficacy; ⊚ Effective even in the presence of organic matter
Norovirus (alternative) = test system: Norovirus (alternative); parameters: key: ◯ Effective; ∇ Low efficacy; ⊚ Effective even in the presence of organic matter
Novel coronavirus = test system: Novel coronavirus; parameters: key: ◯ Effective; ∇ Low efficacy; ⊚ Effective even in the presence of organic matter
[1] = as qualified in the cell (undiluted solution / at usage concentration)

In the case of OCl [Sodium hypochlorite], the Antibacterial/fungal activity (bacteria, fungi) is given as “Broad range”, the “Antiviral activity: Influenza” value (Influenza) is given as “◯” and the “Antiviral activity: Norovirus (alternative)” value (Norovirus (alternative)) is given as “◯”. The “Antiviral activity: Novel coronavirus” value (Novel coronavirus) was “◯” and the Safety [1] was “hazardous”.
In the case of CCO [Disinfecting ethanol, Ethanol], the Antibacterial/fungal activity (bacteria, fungi) is listed as “Broad range”, the “Antiviral activity: Influenza” value (Influenza) is listed as “◯” and the “Antiviral activity: Norovirus (alternative)” value (Norovirus (alternative)) is listed as “∇”. For the same compound, the “Antiviral activity: Novel coronavirus” value (Novel coronavirus) was “◯” and the Safety [1] was “Flammable”.
In the case of CCO [alcohol], the “Concentration required for an inactivation effect on enveloped viruses” value (enveloped viruses) is given as ≥ 70 % (v/v).
